Laboratory results as given in US5198424A, “Functionally active selectin-derived peptides” (Board of Regents of the University of Oklahoma, priority 1992, dated 1993).
Like-named read-outs stand apart in the source and are kept apart here. Ends that are not written are not given here.

How the values were obtained:
GMP-140 [1] = biological target: T1, GMP-140 (Homo sapiens, UniProt P16109); test: ELISA of binding of biotinylated monoclonal antibodies G1, G2, G3 to immobilized GMP-140 with soluble peptide; design: from tissue; host or cells: outdated human platelet packs (platelet lysate); details: 2 h, peptide 1.5 mM
T1 sequence (P16109 42-830): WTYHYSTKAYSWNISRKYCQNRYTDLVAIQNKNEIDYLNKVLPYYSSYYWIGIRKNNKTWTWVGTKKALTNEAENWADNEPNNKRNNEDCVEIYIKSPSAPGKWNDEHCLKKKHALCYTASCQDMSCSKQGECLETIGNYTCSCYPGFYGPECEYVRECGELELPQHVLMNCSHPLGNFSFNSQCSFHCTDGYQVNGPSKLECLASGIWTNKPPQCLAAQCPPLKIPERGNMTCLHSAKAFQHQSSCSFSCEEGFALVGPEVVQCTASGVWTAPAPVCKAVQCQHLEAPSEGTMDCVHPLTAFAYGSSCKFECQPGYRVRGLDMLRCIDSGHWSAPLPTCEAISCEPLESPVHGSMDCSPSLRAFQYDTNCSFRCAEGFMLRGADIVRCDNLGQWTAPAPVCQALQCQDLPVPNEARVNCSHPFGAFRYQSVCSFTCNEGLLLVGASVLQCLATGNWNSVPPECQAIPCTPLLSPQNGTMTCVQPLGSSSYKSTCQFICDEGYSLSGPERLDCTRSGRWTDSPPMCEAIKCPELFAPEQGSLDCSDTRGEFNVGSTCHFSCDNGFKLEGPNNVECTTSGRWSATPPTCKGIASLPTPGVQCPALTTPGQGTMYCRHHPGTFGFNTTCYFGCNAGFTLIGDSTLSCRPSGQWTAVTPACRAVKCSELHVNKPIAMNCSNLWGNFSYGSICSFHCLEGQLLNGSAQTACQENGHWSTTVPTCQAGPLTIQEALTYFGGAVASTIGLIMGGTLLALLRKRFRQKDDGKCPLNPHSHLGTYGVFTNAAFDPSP
Experimental: Based on competitive ELISAs with the purified protein, G1, G2, and G3 each recognize distinct or only partially overlapping epitopes. 1.5 mM peptide was added to biotinylated mAb at a concentration of 2.5 micrograms/ml, which were then added to the wells containing GMP-140, as described in example 1. Binding was measured by an ELISA with an avidin detection system.
The monoclonal antibodies were biotinylated as follows: to 0.5 ml of purified IgG antibody (1 mg/ml in PBS, pH 7.4) was added 50 μl of 3.2 mM N-hydroxysuccinimide biotin in dimethyl sulfoxide and 50 μl of 1 M NaHCO3. After a 2 hour incubation at room temperature in the dark, the reaction was stopped with 50 μl of 1 M NH4 Cl. The biotinylated antibody was then separated from other components by gel filtration on a PD-10 column equilibrated in PBS. The ELISA was performed as follows; all steps were performed at room temperature.
Biotinylated antibody (2.5 μg/ml) with or without 1.5 mM peptide was incubated with wells coated with GMP-140 as described in example 1. After a 2 hour incubation, the antibody was removed, the wells were washed, and 0.1 ml of horseradish peroxidase-conjugated stepavidin (Pierce), diluted 1:1000 in HBSS/HSA, was added for 30 min. The wells were then washed and 0.1 ml of peroxidase substrate (Pierce) was added for 15 min. The color reaction was read at 405 nm.

GMP-140 [2] = biological target: T1, GMP-140; test: Neutrophil adhesion to purified GMP-140 immobilized on plastic wells (myeloperoxidase readout); assay type: cell-based; design: from tissue; host or cells: outdated human platelet packs (platelet lysate); details: for adhesion of neutrophils to immobilized GMP-140 abolished: neutrophils treated with the protease; for % Bound (neutrophils bound to immobilized GMP-140 in the presence of GMP-140-derived peptide): peptide 1.5 mM, cells bound with control C-terminal peptide 761-777 normalized to 100%
Description: Peptides were screened for their ability to inhibit neutrophil adhesion to purified GMP-140 immobilized on plastic wells, using the assay described by Geng, et al., Nature 343, 757-760 (1990).
Human neutrophils are isolated from heparinized whole blood by density gradient centrifugation on Mono-Poly resolving media, Flow Laboratories. Neutrophil suspensions are greater than 98% pure and greater than 95% viable by trypan blue exclusion. For adhesion assays, neutrophils are suspended at a concentration of 2×10^6 cells/ml in Hanks' balanced salt solution containing 1.26 mM Ca^2+ and 0.81 mM Mg^2+ (HBSS, Gibco) with 5 mg/ml human serum albumin (HBSS/HSA). Adhesion assays are conducted in triplicate in 96-well microtiter plates, Corning, incubated at 4° C. overnight with 50 microliters of various protein solutions.
GMP-140 is plated at 5 micrograms/ml and the control proteins: human serum albumin (Alb), platelet glycoprotein IIb/IIIa (IIb), von Willebrand factor (vWF), fibrinogen (FIB), thrombomodulin (TM), gelatin (GEL) or human serum (HS), are added at 50 micrograms/ml. All wells are blocked for 2 h at 22° C. with 300 microliters HBSS containing 10 mg/ml HSA, then washed three times with HBSS containing 0.1% Tween-20 and once with HBSS. Cells (2×10^5 per well were added to the wells and incubated at 22° C. for 20 min. The wells were then filled with HBSS/HSA, sealed with acetate tape (Dynatech), and centrifuged inverted at 150 g for 5 min. After discarding nonadherent cells and supernates, the contents of each well are solubilized with 200 microliters 0.5% hexadecyltrimethylammonium bromide, Sigma, in 50 mM potassium phosphate, pH 6.0, and assayed for myeloperoxidase activity, Ley, et al., Blood 73, 1324-1330 (1989). The number of cells bound was derived from a standard curve of myeloperoxidase activity versus numbers of cells. Under all assay conditions, the cells released less than 5% of total myeloperoxidase and lactate dehydrogenase. Results are presented in Table I. 100% adhesion is that seen in the presence of the C-terminal peptide (amino acid residues 761-777 of GMP-140) as a negative control; this value is the same as controls in which neither peptide nor antibody is added to the cells. Inhibition is read as a lower percent adhesion, so that a value of 5% mean that 95% of the specific adhesion was inhibited.
Peptides from the lectin-like domain of GMP-140 were assayed for their ability to inhibit adhesion of neutrophils to immobilized GMP-140 in the assay described in example 1. Concentrations tested ranged from 0.1 mM to 1.5 mM.

[3] = mAb G1 2.5 micrograms/ml, read-out: % Binding of Biotinylated MAbs G1
[4] = mAb G2 2.5 micrograms/ml, read-out: % Binding of Biotinylated MAbs G2
[5] = mAb G3 2.5 micrograms/ml, read-out: % Binding of Biotinylated MAbs G3

Substance: CQDDGK [SECRETORY 720-721/762-765, reference compound]
- remaining activity at 1500 µM (GMP-140 [1]; [3]): 106%
- remaining activity at 1500 µM (GMP-140 [1]; [4]): 99%
- remaining activity at 1500 µM (GMP-140 [1]; [5]): 104%

Substance: SKQGE [EGF 128-132]
- remaining activity at 1500 µM (GMP-140 [1]; [3]): 107%
- remaining activity at 1500 µM (GMP-140 [1]; [4]): 92%
- remaining activity at 1500 µM (GMP-140 [1]; [5]): 104%

Substance: trypsin [reference compound]
- adhesion of neutrophils to immobilized GMP-140 abolished (GMP-140 [2]): Greater than 70%

Substance: RKNNK [54-58]
- % Bound (neutrophils bound to immobilized GMP-140 in the presence of GMP-140-derived peptide) (GMP-140 [2]): 108%

Substance: RYTDLVAIQ [22-30]
- % Bound (neutrophils bound to immobilized GMP-140 in the presence of GMP-140-derived peptide) (GMP-140 [2]): 6%

Substance: NRYTDLV [21-27]
- % Bound (neutrophils bound to immobilized GMP-140 in the presence of GMP-140-derived peptide) (GMP-140 [2]): 65%

Substance: LETIGNYT [EGF 134-141]
- remaining activity at 1500 µM (GMP-140 [1]; [3]): 97%
- remaining activity at 1500 µM (GMP-140 [1]; [4]): 104%
- remaining activity at 1500 µM (GMP-140 [1]; [5]): 109%

Substance: AENWADNEPNNKR [73-85]
- % Bound (neutrophils bound to immobilized GMP-140 in the presence of GMP-140-derived peptide) (GMP-140 [2]): 41%

Substance: RKNNKTW [54-60]
- % Bound (neutrophils bound to immobilized GMP-140 in the presence of GMP-140-derived peptide) (GMP-140 [2]): 63%

Substance: NRYTDLVAIQ [21-30]
- % Bound (neutrophils bound to immobilized GMP-140 in the presence of GMP-140-derived peptide) (GMP-140 [2]): 20%

Substance: YPGFYGPECEYVRE [EGF 145-158]
- remaining activity at 1500 µM (GMP-140 [1]; [3]): 94%
- remaining activity at 1500 µM (GMP-140 [1]; [4]): 92%
- remaining activity at 1500 µM (GMP-140 [1]; [5]): 108%

Substance: NRYTDLVAI [21-29]
- % Bound (neutrophils bound to immobilized GMP-140 in the presence of GMP-140-derived peptide) (GMP-140 [2]): 71%

Substance: YTDLVAIQ [23-30]
- % Bound (neutrophils bound to immobilized GMP-140 in the presence of GMP-140-derived peptide) (GMP-140 [2]): 7%

Substance: LKKKHAL [LECTIN 110-116]
- remaining activity at 1500 µM (GMP-140 [1]; [3]): 98%
- remaining activity at 1500 µM (GMP-140 [1]; [4]): 100%
- remaining activity at 1500 µM (GMP-140 [1]; [5]): 108%

Substance: NKTWTWV [57-63]
- % Bound (neutrophils bound to immobilized GMP-140 in the presence of GMP-140-derived peptide) (GMP-140 [2]): 69%

Substance: ADNEPNNKRNNED [77-89]
- % Bound (neutrophils bound to immobilized GMP-140 in the presence of GMP-140-derived peptide) (GMP-140 [2]): 68%

Substance: VEIYIKSPSAPGKWNDEH [LECTIN 91-108]
- remaining activity at 1500 µM (GMP-140 [1]; [3]): 97%
- remaining activity at 1500 µM (GMP-140 [1]; [4]): 93%
- remaining activity at 1500 µM (GMP-140 [1]; [5]): 96%

Substance: CQNRYTDL [19-26]
- % Bound (neutrophils bound to immobilized GMP-140 in the presence of GMP-140-derived peptide) (GMP-140 [2]): 92%

Substance: KNNKTW [55-60]
- % Bound (neutrophils bound to immobilized GMP-140 in the presence of GMP-140-derived peptide) (GMP-140 [2]): 70%

Substance: GTKKALTNE [64-72]
- % Bound (neutrophils bound to immobilized GMP-140 in the presence of GMP-140-derived peptide) (GMP-140 [2]): 92%

Substance: RKNNKT [54-59]
- % Bound (neutrophils bound to immobilized GMP-140 in the presence of GMP-140-derived peptide) (GMP-140 [2]): 86%

Substance: VAIQNKNE [27-34]
- % Bound (neutrophils bound to immobilized GMP-140 in the presence of GMP-140-derived peptide) (GMP-140 [2]): 91%

Substance: RKNNKTWTWV [54-63]
- % Bound (neutrophils bound to immobilized GMP-140 in the presence of GMP-140-derived peptide) (GMP-140 [2]): 13%

Substance: RKRFRQK [TRANSMEMBRANE 755-761, reference compound]
- remaining activity at 1500 µM (GMP-140 [1]; [3]): 100%
- remaining activity at 1500 µM (GMP-140 [1]; [4]): 119%
- remaining activity at 1500 µM (GMP-140 [1]; [5]): 104%

Substance: 66-78: GMP-140 lectin domain amino acids 66-78, overlapping peptide; by b139 alignment KKALTENAENWAD
- inhibition of neutrophil adhesion to immobilized GMP-140 (in words) (GMP-140 [2]): inhibited adhesion
- inhibition of neutrophil binding to immobilized GMP-140, dependence on concentration (GMP-140 [2]; FIG. 3, 0.1 mM to 1.5 mM peptide): inhibited binding in a dose-dependent manner
- inhibition of neutrophil adhesion to immobilized GMP-140 (in words) (GMP-140 [2]; listed as 66 to 78): very active
- % Bound (neutrophils bound to immobilized GMP-140 in the presence of GMP-140-derived peptide) (GMP-140 [2]): 6%

Substance: CSDTRGEFNVGST [REPEATS 544-556, reference compound]
- remaining activity at 1500 µM (GMP-140 [1]; [3]): 107%
- remaining activity at 1500 µM (GMP-140 [1]; [4]): 96%
- remaining activity at 1500 µM (GMP-140 [1]; [5]): 111%

Substance: NRYTDLVA [21-28]
- % Bound (neutrophils bound to immobilized GMP-140 in the presence of GMP-140-derived peptide) (GMP-140 [2]): 85%

Substance: elastase [reference compound]
- adhesion of neutrophils to immobilized GMP-140 abolished (GMP-140 [2]): Greater than 70%

Substance: YTDLVAIQNKNE [23-34]
- % Bound (neutrophils bound to immobilized GMP-140 in the presence of GMP-140-derived peptide) (GMP-140 [2]): 30%

Substance: PNNKRNNED [81-89]
- % Bound (neutrophils bound to immobilized GMP-140 in the presence of GMP-140-derived peptide) (GMP-140 [2]): 104%

Substance: AENWADNE [73-80]
- % Bound (neutrophils bound to immobilized GMP-140 in the presence of GMP-140-derived peptide) (GMP-140 [2]): 100%

Substance: TWTWV [59-63]
- % Bound (neutrophils bound to immobilized GMP-140 in the presence of GMP-140-derived peptide) (GMP-140 [2]): 102%

Substance: NNKTW [56-60]
- % Bound (neutrophils bound to immobilized GMP-140 in the presence of GMP-140-derived peptide) (GMP-140 [2]): 96%

Substance: YTASCQDMS [LECTIN/EGF 118-126]
- remaining activity at 1500 µM (GMP-140 [1]; [3]): 92%
- remaining activity at 1500 µM (GMP-140 [1]; [4]): 92%
- remaining activity at 1500 µM (GMP-140 [1]; [5]): 104%
